Measured values reported in article PMC10222686, “Synthesis and Molecular Docking Studies of Alkoxy- and Imidazole-Substituted Xanthones as α-Amylase and α-Glucosidase Inhibitors” (Molecules, 2023).

Experiments:
α-amylase = molecular target: T1, α-amylase (Sus scrofa, UniProt P00690); experiment: α-Amylase inhibition assay (starch/DNS); type: biochemical, porcine; settings: mean ± SD, n = 4; for inhibition at 100 µM: NI = no inhibition; for IC50: compounds precipitate at 200 µM;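 as to all read-outs here: reducing sugar measured by DNS colour at 540 nm, inhibition relative to enzyme reaction lacking test compound, blank without enzyme subtracted for background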
T1 construct: purchased Sigma-Aldrich; host or cells: porcine pancreas
T1 sequence (P00690 16-511): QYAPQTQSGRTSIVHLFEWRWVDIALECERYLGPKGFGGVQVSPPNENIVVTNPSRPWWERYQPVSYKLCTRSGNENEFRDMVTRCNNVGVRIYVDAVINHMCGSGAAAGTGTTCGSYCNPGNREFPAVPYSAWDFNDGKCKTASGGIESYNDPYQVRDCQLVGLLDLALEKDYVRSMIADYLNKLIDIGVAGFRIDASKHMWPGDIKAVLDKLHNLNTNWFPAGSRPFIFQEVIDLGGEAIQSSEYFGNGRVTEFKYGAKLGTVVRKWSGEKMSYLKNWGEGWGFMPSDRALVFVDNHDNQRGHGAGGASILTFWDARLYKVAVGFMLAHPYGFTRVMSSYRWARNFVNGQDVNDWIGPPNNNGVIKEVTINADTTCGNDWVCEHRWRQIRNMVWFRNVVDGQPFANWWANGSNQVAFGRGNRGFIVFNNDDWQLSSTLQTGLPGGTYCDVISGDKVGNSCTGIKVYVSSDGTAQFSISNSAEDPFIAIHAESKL
Description: α-Amylase inhibitory activity was quantified according to the method developed by Chokki et al., with some modifications [65]. […] Finally, 100 µL of 3,5-dinitrosalicylic acid (DNS) was added and heated at 100 °C for 20 min, and absorbance was then read at 540 nm in a microplate reader (Epoch, BioTek®). The reaction system without any test compound was used as the control, and the system without α-amylase served as a blank for correcting background absorbance. The percentage of α-amylase inhibition was calculated for each sample with Equation (2):(2) % inhibition=Control absorbance−sample absorbance/Control absorbance×100
(§1) All measurements were performed in quadruplicate and the values are expressed as the mean ± standard deviation.

α-glucosidase = experiment: α-Glucosidase inhibition assay (p-NPG substrate); type: biochemical, Saccharomyces cerevisiae; settings: mean ± SD, n = 4
Description: The inhibitory activity of the compounds on α-glucosidase inhibition was quantified according to the method described by Salehi et al., with slight modifications [64]. A reaction was prepared by mixing 20 µL α-glucosidase solution (0.5 unit/mL), 120 µL 0.1 M phosphate buffer (pH 6.9), and 10 µL of the samples at concentrations from 400 µM to 4.0 µM. The solution was incubated in a 96-well microplate at 37 °C for 15 min. The enzymatic reaction was initiated by adding 20 µL of 5 mM p-NPG solution to 0.1 M phosphate buffer (pH 6.9), followed by incubation at 37 °C for 15 min. The reaction was stopped by adding 80 µL of 0.2 M sodium carbonate solution, and absorbance was read at 405 nm in a microplate reader (Epoch®, BioTek Instrument, Winooski, EUA). The reaction system without any test compounds was used as control, whereas the system without α-glucosidase served as blank for correcting background absorbance. The rate of α-glucosidase inhibition exerted by each sample was calculated with Equation (1):(1) % inhibition=Control absorbance−sample absorbance/Control absorbance×100
as §1

[1] = DPPH radical scavenging assay; settings: mean ± SD, n = 4
Description: The scavenging of free radicals by the synthesized compounds was assessed based on the previously reported DPPH radical assay, with slight modifications. The reaction mixture consisted of 50 µL of compound in DMSO at various concentrations (from 2.5 mM to 0.2 mM) and 150 µL of DPPH solution at 133.33 µM in absolute ethanol. The reaction components were added at a ratio of 1:3 (v/v). The mixture was incubated at 37 °C for 30 min before absorbance was read at 517 nm using a microplate reader (Epoch, BioTek®). Butylhydroxytoulene (BHT) served as the positive control. Scavenging capacity (%) is expressed as the percentage decrease in DPPH. SC% = [(Acontrol − Atest)/Acontrol] × 100 where Acontrol is absorbance of the DPPH solution (control) and Atest is the absorbance of the solution of DPPH and one of the compounds.

| SMILES | inhibition at 100 µM (α-amylase) | IC50 (α-amylase) | α-Glucosidase Inhibition (%) at 400 µM (α-glucosidase) | IC50 (α-glucosidase) | melting point | % DPPH Scavenging Activity (2.5 mM) [1] |
| --- | --- | --- | --- | --- | --- | --- |
| COc1cc2oc3ccccc3c(=O)c2cc1O [Compound 1, 2-Hydroxy-3-methoxy-9H-xanthen-9-one] | 98.7 ± 0.11% | 26.5 ± 0.01 µM | 26.5 ± 0.81% | > 400 µM | – | – |
| C=CCOc1cc2c(=O)c3ccccc3oc2cc1OC [Compound 6d, 2-(Allyloxy)-3-methoxy-9H-xanthen-9-one] | < 0% | – | 22.1 ± 1.04% | > 400 µM | 150 to 151 °C | 3.9 ± 0.58 ^H,I % |
| COC(=O)COc1cc2c(=O)c3ccccc3oc2cc1OC [Compound 6a, Methyl 2-((3-methoxy-9-oxo-9H-xanthen-2-yl)oxy)acetate] | 8.7 ± 0.2% | > 200 µM | 99.5 ± 0.2% | 143.6 ± 0.17 µM | 139 to 140 °C | 1.7 ± 0.91 ^H,I % |
| COc1cc2oc3ccccc3c(=O)c2c2c1OC(C)(C)C=C2 [Compound 8, 5-Methoxy-3,3-dimethylpyrano[3,2-a]xanthen-12(3H)-one] | < 0% | – | 38.3 ± 0.04% | > 400 µM | – | 1.9 ± 0.73 ^H,I % |
| C[C@H]1O[C@H](O[C@H]2[C@H](O)[C@@H](O)[C@@H](O[C@H]3[C@H](O)[C@@H](O)C(O)O[C@@H]3CO)O[C@@H]2CO)[C@H](O)[C@@H](O)[C@@H]1N[C@H]1C=C(CO)[C@@H](O)[C@H](O)[C@H]1O (some centres unmarked) [Acarbose, acarbose, reference compound] | 99.3 ± 0.06% | – | 63.18 ± 0.7% | – | – | – |
| C=CCc1c(OCCCCn2ccnc2)c(OC)cc2oc3ccccc3c(=O)c12 [Compound 10d, 2-(4-(1H-Imidazol-1-yl)butoxy)-1-allyl-3-methoxy-9H-xanthen-9-one] | < 0% | – | 2.5 ± 0.01% | > 400 µM | – | 5.1 ± 0.08 ^H % |
| COc1cc2oc3ccccc3c(=O)c2cc1OCCCCn1ccnc1-c1ccccc1 [Compound 10b, 3-Methoxy-2-(4-(2-phenyl-1H-imidazol-1-yl)butoxy)-9H-xanthen-9-one] | 9.7 ± 0.21% | > 200 µM | 90.2 ± 0.21% | 212.4 ± 0.1 µM | 132 to 134 °C | 12.2 ± 0.08 ^F,G % |
| COc1cc2oc3ccccc3c(=O)c2cc1OCCCCn1ccnc1 [Compound 10a, 2-(4-(1H-imidazol-1-yl)butoxy)-3-methoxy-9H-xanthen-9-one] | < 0% | – | 1.3 ± 0.01% | > 400 µM | 137 to 138 °C | 0.8 ± 0.01 ^I % |
| C=CCc1c(O)c(OC)cc2oc3ccccc3c(=O)c12 [Compound 7, 1-Allyl-2-hydroxy-3-methoxy-9H-xanthen-9-one] | 7.8 ± 0.1% | > 200 µM | 75.5 ± 0.50% | 196.4 ± 0.07 µM | – | 45.9 ± 2.89 ^B† % |
| COc1cc2oc3ccccc3c(=O)c2cc1OCC(C)=O [Compound 6b, 3-Methoxy-2-(2-oxopropoxy)-9H-xanthen-9-one] | – | – | 9.3 ± 0.1% | > 400 µM | 144 to 145 °C | 11.8 ± 1.07 ^F,G % |
| C=CCc1c(OCC(=O)c2ccc(Cl)cc2)c(OC)cc2oc3ccccc3c(=O)c12 [Compound 6e, 1-Allyl-2-(2-(4-chlorophenyl)-2-oxoethoxy)-3-methoxy-9H-xanthen-9-one] | 60.3 ± 0.1% | 68.1 ± 0.04 µM | 98.6 ± 0.90% | 12.8 ± 0.01 µM | – | 10.4 ± 0.83 ^F,G % |
| COc1cc2oc3ccccc3c(=O)c2cc1OCCCCBr [Compound 9a, 2-(4-Bromobutoxy)-3-methoxy-9H-xanthen-9-one] | 62.9 ± 0.2% | 73.5 ± 0.04 µM | 97.8 ± 0.3% | 40 ± 0.018 µM | – | 19.5 ± 1.22 ^D % |
| COC(=O)/C(=C/N(C)C)Oc1cc2c(=O)c3ccccc3oc2cc1OC [Compound 5, Methyl (Z)-3-(dimethylamino)-2-((3-methoxy-9-oxo-9H-xanthen-2-yl)oxy)acrylate] | < 0% | – | 15.2 ± 0.16% | > 400 µM | – | 13.9 ± 1.14 ^E,F % |
| Cc1cc(C(C)(C)C)c(O)c(C(C)(C)C)c1 [BHT, butylhydroxytoluene, reference compound] | – | – | – | – | – | 85.2 ± 3.33 ^A‡ % |

Continued, in another order:

| inhibition at 100 µM (α-amylase) | IC50 (α-amylase) | α-Glucosidase Inhibition (%) at 400 µM (α-glucosidase) | IC50 (α-glucosidase) | melting point | SMILES | % DPPH Scavenging Activity (2.5 mM) [1] |
| --- | --- | --- | --- | --- | --- | --- |
| 2.4 ± 0.15% | > 200 µM | 96.6 ± 1.45% | 104.9 ± 0.01 µM | 187 to 189 °C | C=CCc1c(OCC(O)Cn2ccnc2-c2ccccc2)c(OC)cc2oc3ccccc3c(=O)c12 (centres unmarked) [Compound 12e, 1-Allyl-2-(2-hydroxy-3-(2-phenyl-1H-imidazol-1-yl)propoxy)-3-methoxy-9H-xanthen-9-one] | 17.6 ± 1.14 ^D % |
| < 0% | – | 0.48 ± 0.02% | > 400 µM | 143 to 144 °C | COc1cc2oc3ccccc3c(=O)c2cc1OCC1CO1 (centres unmarked) [Compound 11a, 3-Methoxy-2-(oxiran-2-ylmethoxy)-9H-xanthen-9-one] | 19.8 ± 1.04 ^D % |
| 7.8 ± 0.5% | > 200 µM | 99.7 ± 0.29% | 120 ± 0.03 µM | 115 to 116 °C | C=CCc1c(OCC2CO2)c(OC)cc2oc3ccccc3c(=O)c12 (centres unmarked) [Compound 11b, 1-Allyl-3-methoxy-2-(oxiran-2-ylmethoxy)-9H-xanthen-9-one] | 18.4 ± 1.43 ^D % |
| 3.9 ± 0.55% | > 200 µM | 97.5 ± 1.78% | 210.9 ± 0.33 µM | 235 °C (dec.) | COc1cc2oc3ccccc3c(=O)c2cc1OCC(O)Cn1ccnc1-c1ccc(Cl)cc1 (centres unmarked) [Compound 12c, 2-(3-(2-(4-Chlorophenyl)-1H-imidazol-1-yl)-2-hydroxypropoxy)-3-methoxy-9H-xanthen-9-one] | 19.0 ± 0.22 ^D % |
| 1.5 ± 0.1% | > 200 µM | 52.2 ± 0.87% | 400.2 ± 0.24 µM | 187 to 189 °C | C=CCc1c(OCC(O)Cn2ccnc2)c(OC)cc2oc3ccccc3c(=O)c12 (centres unmarked) [Compound 12d, 1-Allyl-2-(2-hydroxy-3-(1H-imidazol-1-yl)propoxy)-3-methoxy-9H-xanthen-9-one] | 10.1 ± 0.87 ^G % |
| 8.7 ± 0.81% | > 200 µM | 84.9 ± 0.57% | 112.8 ± 0.12 µM | 157 to 159 °C | COc1cc2oc3ccccc3c(=O)c2cc1OCC(O)Cn1ccnc1-c1ccccc1 (centres unmarked) [Compound 12b, 2-(2-Hydroxy-3-(2-phenyl-1H-imidazol-1-yl)propoxy)-3-methoxy-9H-xanthen-9-one] | 16.3 ± 1.45 ^D,E % |
